{"source": "patent US20120309798A1", "about": "“Tumour Treatment Agents and Method” (Vivolux AB, priority 2009, published 2012)", "key": {"[1]": {"test_system": "BNIP and Ndrg-1 expression", "experiment": "Gene expression analysis of drug treated tumor cell cultures", "assay_type": "cell-based", "details": "HIF1 alfa dependent genes", "description": "Mechanism of action. Mechanistic exploration was performed using gene expression analysis of drug treated tumor cell cultures to generate a drug specific signature. The breast cancer cell line MCF-7 was treated with VLX50 or vehicle (DMSO) and analyzed for gene expression using the Affymetrix U1300plus chip. […] This query signature was subsequently submitted to the GSEA and the Connectivity map databases and strong connections to hypoxia inducible factor (HIF1 alfa) and iron chelators were retrieved. […] The mechanism was confirmed by direct measurements of drug induced decrease in intracellular iron concentration (FIG. 6b)."}, "[2]": {"test_system": "NHL (Non-Hodgkins Lymphoma) patient tumor cells", "experiment": "FMCA, patient tumor samples, NHL", "assay_type": "cell-based", "details": "Homo sapiens, range over n=13 samples", "excerpt": "(§1) Cell culture. Patient tumor samples (98) and preparations (4) of normal peripheral blood mononuclear cells (PBMC), detailed in Table 1, were used to determine the activity of VLX50 and, for comparison, six other cytotoxic drugs chosen to represent different mechanistic classes.\n(§2) The tumor samples were obtained by bone marrow/peripheral blood sampling, routine surgery or diagnostic biopsy. Leukemic cells and PBMCs were isolated by 1.077 g ml-1 Ficoll-Paque centrifugation (Larsson et al., 1992). Tumor tissue from solid tumor samples was minced into small pieces and tumor cells were isolated by collagenase dispersion followed by Percoll density gradient centrifugation (Csoka et al., 1994). […] Cell viability was determined by trypan blue exclusion test and the proportion of tumor cells in the preparation was judged by inspection of May-Grunvald-Giemsa stained cytospin slides (FIG. 1a). […]\n(§3) Fluorometric Microculture Cytotoxicity Assay. The Fluorometric Microculture Cytotoxicity Assay, FMCA, described in detail previously (Lindhagen et al., 2008), is based on measurement of fluorescence generated from hydrolysis of fluorescein diacetate (FDA) to fluorescein by cells with intact plasma membranes. […] Quality criteria for a successful assay included a mean coefficient of variation of less than 30% in the control and a fluorescence signal in control wells of more than 5 times the blank. […]"}, "[3]": {"test_system": "Breast cancer patient tumor cells", "experiment": "FMCA, patient tumor samples, breast cancer", "assay_type": "cell-based", "details": "Homo sapiens", "excerpt": "as §1, §2, §3"}, "[4]": {"test_system": "CML (Chronic Myelocytic Leukemia) patient tumor cells", "experiment": "FMCA, patient tumor samples, CML", "assay_type": "cell-based", "details": "Homo sapiens", "excerpt": "as §1, §2, §3"}, "MCF-7 tumor cells": {"test_system": "MCF-7 tumor cells", "experiment": "Mode of cell death: time lapse phase contrast microscopy and multiparametric HCS (Arrayscan II)", "assay_type": "cell-based", "description": "Multiparametric high content screening assays. To study the cell death characteristics a multi-parametric high content screening (HCS) assay was used (Cellomics cytotoxicity HitKit™) and an HCS assay for measurement of apoptosis, which has been described in detail previously (Lovborg et al., 2004). The cells (1500 cells/well) were seeded into flat-bottomed 96-well plates (Perkin Elmer Inc., Wellesley, Mass.) and were left to attach before addition of drugs. For the cytotoxicity assay the cytotoxicity HitKit™ reagents (Cellomics Inc., Pittsburgh, Pa., USA) was used according to the manufacturer's instructions. Multi-parameter cytotoxicity HitKit™ contains a nuclear dye, a cell permeability dye, and a lysosomal mass/pH indicator. In the apoptosis assay FAM-DEVD-FMK (part of the CaspaTag Kit, Chemicon, Temecula, Calif.) at a final concentration of 20 μM was added one hour before the end of the drug exposure to stain activated caspase-3 and partly caspase-7. The staining solution was removed and the plates were washed twice with PBS followed by a 30 min fixation in 3.7% formaldehyde and nuclear staining with 10 μM Hoechst 33342 (Sigma). Plates were then washed twice. The plates were centrifuged before each aspiration to avoid loss of cells detached due to toxic stimuli. Processed plates were kept at +4° C. for up to 24 h before analysis. Plates were analyzed using the ArrayScan™ HCS software (Cellomics Inc). The system is a computerized automated fluorescence-imaging microscope that automatically identifies stained cells and reports the intensity and distribution of fluorescence in individual cells. Images were acquired for each fluorescence channel, using suitable filters with 20× objective. In each well at least 800 cells were analyzed. Images and data were stored in a Microsoft SQL database.\nPhase contrast microscopy. Time lapse phase contrast microscopy was performed using an automated Incucyte phase contrast microscope. MCF-7 cells (10,000/well) were plated on 24-well ImageLock plates (Essen Instruments, Ann Arbor, Mich.) and cultured in RPMI 1640 media containing 10% fetal bovine serum and antibiotics. The plates were immediately placed into IncuCyte imaging system (Essen Instruments). The chamber is designed to fit into a standard, humidified, CO2 incubator in an atmosphere of 5% CO2, and a moving objective allows the cell culture to be stationary while images are captured at different positions from well to well. Images were collected at hourly intervals starting 30 minutes after addition of the plate to the IncuCyte-FLR chamber. Drug treatment was performed 24 hours after the plates were placed in the Incucyte. Cell density was calculated using the Incucyte software. […]"}, "ROS formation": {"test_system": "ROS formation", "experiment": "ROS formation", "details": "in contrast to triapine"}}, "note": "Read-outs that look alike come from different tables or passages of the source.", "data": [{"smiles": "COCCCNC(=S)N/N=C\\c1ccccn1", "note": "[VLX50, N1-(3-methoxypropyl)-2-(pyridylmethylidene)-hydrazine-1-carbothioamide]", "values": [{"measurement": "Expression of BNIP and Ndrg-1", "setting": "[1]", "result": "significantly increasing"}, {"measurement": "IC50", "setting": "[2]", "result": "0.28 to 40", "unit": "µM"}, {"measurement": "IC50", "setting": "[3]; n=7, 72 h FMCA, read-out: Median IC50", "result": 8.23, "unit": "µM"}, {"measurement": "IC50", "setting": "[3]; range over n=7 samples, read-out: IC50 Range", "result": "0.87 to 40", "unit": "µM"}, {"measurement": "IC50", "setting": "[4]; n=3, 72 h FMCA, read-out: Median IC50", "result": 5.13, "unit": "µM"}, {"measurement": "IC50", "setting": "[4]; range over n=3 samples, read-out: IC50 Range", "result": "2.1 to 6.42", "unit": "µM"}, {"measurement": "Caspase-3 activity", "setting": "MCF-7 tumor cells; MCF-7, 48-72 h", "result": "increase"}, {"measurement": "Cell density", "setting": "MCF-7 tumor cells; MCF-7, 48-72 h", "result": "gradual decrease"}, {"measurement": "DNA fragmentation", "setting": "MCF-7 tumor cells; MCF-7, 48-72 h", "result": "increase"}, {"measurement": "Effect on growth and viability", "setting": "MCF-7 tumor cells; MCF-7, 24 h", "result": "little or no effect"}, {"measurement": "ROS formation", "setting": "ROS formation", "result": "does not appear to induce ROS formation"}]}]}
